Measured values: the supplement of paper PMC5770543
± gives the standard deviation.

Key:
[1] = test system: Toxoplasma gondii RH tachyzoites; assay: % growth inhibition vs DMSO (48 h luciferase); higher = more inhibition; conditions: 10 µM
[2] = test system: Plasmodium falciparum 3D7; assay: % inhibition of schizont-to-ring transition vs DMSO; higher = more inhibition
Outline: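 Tightly synchronised P. falciparum schizonts (about 40–42 hours post-invasion, 1% parasitemia, 2.5% hematocrit, AlbuMAX-supplemented RPMI) were exposed to compound at 1, 3 or 10 µM, with vehicle and positive controls. Cells were glutaraldehyde-fixed, Triton-permeabilised, stained with Hoechst 33342 and counted by flow cytometry (at least 100,000 events). Schizont-to-ring transition inhibition is new ring formation relative to vehicle controls, averaged over three experiments.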

[3] = test system: Plasmodium falciparum 3D7; assay: EC50 growth inhibition (60 h, SYBR Green); conditions: stage: ring-stage start
[4] = biological target: Toxoplasma gondii RH tachyzoites; assay: EC50 growth inhibition (48 h luciferase)
[5] = test system: Toxoplasma gondii RH tachyzoites; assay: plaque count per well; higher = less inhibition; extreme values may be limits of the assay; conditions: 10 µM; 8-10 days
Outline: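 The per-well plaque count reflects delayed-death inhibition of parasite growth. Each well of a six-well plate with a confluent HFF monolayer, preseeded with compound at 10 µM, was given fifty T. gondii RH tachyzoites. Plates sat undisturbed for 8 to 10 days before methanol fixation and crystal violet staining. Plaques were then imaged and counted per well with ImageJ, alongside untreated wells and wells treated with 1% DMSO.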
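Wherever % growth inhibition vs DMSO (48 h luciferase) is given: tested in triplicate wells of 96-well plates on confluent HFF monolayers, with 1% DMSO wells as negative control in four replicates.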

Row | Structure (SMILES) | % growth inhibition [1] [%] | % inhibition of schizont-to-ring transition ([2]; 1 µM) [%] | % inhibition of schizont-to-ring transition ([2]; 3 µM) [%] | % inhibition of schizont-to-ring transition ([2]; 10 µM) [%] | EC50 growth inhibition [3] [nM] | EC50 growth inhibition [4] [nM] | plaque count per well [5]
1 | O=C(Nc1ccc(N2CCCCC2)c(Cl)c1)c1ccc(Br)o1 | 82.4 ± 6.4 | 29.7 | 39.7 | 53 | 812 | 7400 | –
2 | CC(C)(C)C(=O)Nc1ccc(C(=O)Nc2cccc(-c3nc4ccccc4[nH]3)c2)cc1 | 88.4 ± 1.2 | 22.8 | 32.4 | 56.2 | 1820 | 2080 | –
3 | Clc1cc(Br)ccc1-c1ccc(CNCC2CCNCC2)o1 | 99.53 ± 0.77 | 46 | 50.9 | 74.4 | 763 | 207 | –
4 | Cc1ccc2nc(C)cc(Nc3cccc(C(F)(F)F)c3)c2c1 | 99.29 ± 0.18 | 2.29 | 31.8 | 62.9 | 894 | 465 | –
5 | COc1ccc(Nc2cc(C)nc(NCc3ccccc3)n2)cc1 | 98.67 ± 0.18 | 30.2 | 34.6 | 60 | 115 | 653 | –
6 | COc1ccccc1N1C(=N)SC(=Cc2ccc(OCc3ccccc3F)cc2)C1=O | 93.42 ± 0.8 | 14.8 | 30.1 | 52.5 | 4920 | 978 | –
7 | O=C(Nc1ccc(Cl)cc1C(=O)Nc1ccncc1)c1ccc(Cl)cc1Cl | 80.8 ± 4.7 | 3.75 | 32.4 | 62.5 | 1280 | 3950 | –
8 | COc1cc2c(cc1OC)C1=NNC(=O)C1=NC(C)(C)C2 | 80.4 ± 1.2 | 14.2 | 25.3 | 63.4 | 1790 | 3260 | –
9 | O=C(Nc1ccc(CN2CCOCC2)cc1)c1ccc(-c2cc(Cl)ccc2Cl)o1 | 81.1 ± 4.3 | 5.81 | 22.5 | 42.6 | 1230 | 5590 | –
10 | CCCCNc1nc(NC(C)(C)C)nc(NC(C)(C)C)n1 | 93.8 ± 2.5 | 12.2 | 25.9 | 66.4 | 2760 | 603 | –
11 | CCn1nc(-c2ccc(C(=O)OC)cc2)nc2c(=O)n(C)c(=O)nc1-2 | 100.5 ± 0.19 | 30.7 | 37.6 | 53.3 | 107 | 2200 | –
12 | c1ccc2c(NCCc3c[nH]c4ccccc34)c3ccccc3nc2c1 | 100.1 ± 0.54 | 57.4 | 60.8 | 71.5 | 201 | 170 | –
13 | CCOc1ccc2nc(C)cc(Nc3ccc(Br)cc3)c2c1 | 99.53 ± 0.2 | 28 | 45.8 | 44.9 | 180 | 4410 | –
14 | COCCNC(=O)c1ccc(OC2CCN(Cc3ccc(F)c(F)c3)CC2)c(Cl)c1 | 97.36 ± 0.96 | 10.5 | 23.7 | 52.4 | 1250 | 270 | –
15 | CCOC(=O)C1=C(c2ccccc2)N=c2sc(=Cc3cc(C)n(-c4ccc(F)cc4)c3C)c(=O)n2C1c1cccc(OC)c1OC (stereo not drawn) | 92.3 ± 2 | 0.392 | 3.17 | 14.4 | 493 | 1500 | –
16 | CC(C)OCc1cc(CN2CCN(c3cccc(Cl)c3)CC2)c(O)c2ncccc12 | 81.6 ± 18 | 7.59 | 35.5 | 53.9 | 3170 | 1690 | –

Row | Structure (SMILES) | % growth inhibition [1] [%] | % inhibition of schizont-to-ring transition ([2]; 1 µM) [%] | % inhibition of schizont-to-ring transition ([2]; 3 µM) [%] | % inhibition of schizont-to-ring transition ([2]; 10 µM) [%] | EC50 growth inhibition [3] [nM] | EC50 growth inhibition [4] [nM] | plaque count per well [5]
17 | Cc1sc(NC(=O)c2ccco2)c(C(c2cccnc2)N2CCC(Cc3ccccc3)CC2)c1C (stereo not drawn) | 99.83 ± 0.14 | 6.59 | 41.7 | 62.4 | 833 | 1120 | –
18 | Oc1ccc(Br)cc1CN1CCN(Cc2ccc(Cl)cc2)CC1 | 91.5 ± 3.5 | 16.2 | 45.5 | 68.8 | 1090 | 6610 | –
19 | CCOC(=O)c1cnc2ccc(Cl)cc2c1NCCCN(C)C | 82.2 ± 2.8 | 0.181 | 23.3 | 54.9 | 1020 | 2340 | –
20 | COc1cc(C(=O)ON=C(N)Cc2cccc3ccccc23)cc(OC)c1OC | 99.01 ± 0.4 | 7.84 | 57 | 73.7 | 218 | 836 | –
21 | CCN(CC)c1cc(C)c2cc(NC(=O)c3cccc(OC)c3)ccc2n1 | 98.73 ± 0.42 | 25.4 | 31.7 | 56.8 | 1300 | 1810 | –
22 | COc1ccc(C(O)(CCC(C)C)C(CN2CCOCC2)c2ccc(Cl)cc2)cc1 (stereo not drawn) | 100.9 ± 0.49 | 8.88 | 11.2 | 32.8 | 2090 | 4870 | –
23 | OC1=C2C(=Nc3ccccc3SC2c2ccc(Br)cc2)c2ccccc21 (stereo not drawn) | 99.19 ± 0.75 | 19.5 | 33.4 | 45.5 | 588 | 803 | –
24 | Oc1c(C(Nc2ccccn2)c2cccc(Oc3ccccc3)c2)ccc2cccnc12 (stereo not drawn) | 99.07 ± 0.26 | 27.1 | 43.9 | 64.8 | 852 | 1080 | –
25 | CCN(CC)CCCNc1nc(-c2ccc(Cl)cc2)nc2ccccc12 | 80.8 ± 4.8 | 44.9 | 45.1 | 58.3 | 3520 | 122 | –
26 | CCCCCCn1c(=N)n(CC(O)COc2cccc(C)c2)c2ccccc21 (stereo not drawn) | 99.65 ± 0.38 | 7.26 | 18.9 | 72.6 | 1130 | 2090 | –
27 | CSc1ccccc1C(=O)Nc1nc(-c2ccccn2)cs1 | 99.44 ± 0.19 | 23 | 26.9 | 40.1 | 1710 | 849 | –
28 | CCOc1ccc(-c2nonc2NC(=O)c2cccc(C)c2)cc1OCC | 96.5 ± 1.9 | 81.4 | 80 | 78.5 | 374 | 1620 | –
29 | COc1ccc(C(=O)C(CCC(CNC(C)(C)C)C(=O)c2ccc(OC)cc2)CNC(C)(C)C)cc1 (stereo not drawn) | 89.2 ± 2.7 | < 0 | 16.3 | 66.1 | 1450 | 1510 | 0
30 | O=C(NCCCN1CCC(N2CCCCC2)CC1)C1=Cc2cc(Br)ccc2OC1 | 88.9 ± 1.1 | 27 | 57.9 | 66.7 | 348 | 2690 | –
31 | O=C(Cc1ccccc1)NC(c1ccc(Cl)cc1)c1c(O)ccc2ccccc12 (stereo not drawn) | 100.2 ± 0.43 | 0.685 | 26.1 | 67.8 | 1880 | 1020 | –
32 | CCOC(=O)c1c(C)n(-c2ccccc2)c2ccc(OC(=O)c3cc(OC)c(OC)c(OC)c3)cc12 | 96.58 ± 0.65 | 11.1 | 16.1 | 27.7 | 1600 | 6360 | –
